Assay results from patent US9951039B2, “Pyrimidines for treatment of bacterial infections” (The Hong Kong Polytechnic University, priority 2016, dated 2018).
Values after ≈ are worked out from the molar mass of the structure shown. Like-named read-outs stand apart in the source and are kept apart here.

How the values were obtained:
S. aureus FtsZ = molecular target: T1, S. aureus FtsZ (Staphylococcus aureus, UniProt P0A031); assay: FtsZ polymerization light scattering assay; type: biochemical; settings: 30 μm of compound; FtsZ 12.5 μM, 1 mM GTP
T1 construct: 6-histidine tag; made in house; host or cells: E. coli BL21(DE3)
T1 sequence (P0A031 1-390): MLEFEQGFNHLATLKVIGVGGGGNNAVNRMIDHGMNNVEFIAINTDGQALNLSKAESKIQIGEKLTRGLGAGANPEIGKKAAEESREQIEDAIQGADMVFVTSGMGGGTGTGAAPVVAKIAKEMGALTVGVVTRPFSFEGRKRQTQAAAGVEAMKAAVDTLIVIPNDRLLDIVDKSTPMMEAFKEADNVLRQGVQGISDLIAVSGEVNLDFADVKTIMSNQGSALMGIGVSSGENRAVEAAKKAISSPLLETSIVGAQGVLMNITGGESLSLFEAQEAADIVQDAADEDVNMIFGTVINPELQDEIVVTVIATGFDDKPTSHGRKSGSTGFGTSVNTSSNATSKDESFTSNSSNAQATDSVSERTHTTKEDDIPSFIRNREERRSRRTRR
Description: Procedure for expression and purification of S. aureus FtsZ protein: S. aureus FtsZ protein was prepared as previous reported.^16a In brief, E. coli BL21(DE3) cells, transformed with a pRSET-A-S vector carrying S. aureus FtsZ with a 6-histidine tag attached, were streaked on a nutrient agar plate containing 50 μg/mL ampicillin. After overnight incubation at 37° C., a single colony was inoculated into 5 mL of Luria-Bertani (LB) medium in the presence of 50 μg/mL ampicillin, which was then incubated at 37° C., with shaking at 250 rpm for 16 h. The overnight culture was transferred into a fresh 2×TY medium in a dilution ratio of 1:100 and 50 μg/mL ampicillin was then added, followed by incubation at 37° C. with shaking at 250 rpm. When OD600 reached 0.8, protein expression was induced with 0.4 mM isopropyl-β-D-thiogalactopyranoside (IPTG) for 4 h. […]
Procedure: The polymerization of recombinant S. aureus FtsZ was measured using a 90° light scattering in a thermostatically (37° C.) controlled Fluorescence Spectrometer LS 50B according to previous reports.^16a,19 Both excitation and emission wavelengths were fixed to 600 nm with a slit width of 2.5 nm. […] After 8 min, the final concentration of 1 mM GTP was added at the last fraction and the increase in light scattering measured for an additional 2000 seconds. The rate and extent of polymerization were measured. […]

[1] = system: S. aureus strain ATCC29213; assay: MIC, broth microdilution antimicrobial susceptibility test (CLSI); type: cell-based; settings: for MIC: Staphylococcus aureus
Source text: (§1) This example illustrates the evaluation of 2,4,6-trisubstituted pyrimidines 14 for their antimicrobial activities against the Gram positive S. aureus strain ATCC29213 and the Gram negative E. coli strain ATCC25922 by measuring their MIC, which is the lowest concentration of an antimicrobial agent that prevents visible growth of a microorganism in a broth dilution susceptibility test according to the standard method approved by the Clinical and Laboratory Standards Institute (CLSI) guidelines.^21
(§2) Procedure of Antimicrobial susceptibility test: The MIC value of compounds was measured in the antimicrobial susceptibility test using the broth microdilution procedure in accordance with the CLSI guidelines.^21 Cation-adjusted Mueller Hinton broth (CA-MHB) was used for all the S. aureus strains in the assay. Cells in exponential phase of growth were diluted to approximately 5×10^5 cfu/mL. Stock solutions of each compound were freshly dissolved in dimethyl sulfoxide (DMSO). Then, serial dilutions of each compound in CA-MHB medium were added into 96-well microplate. The final percentage of DMSO in the assay was 1%. Control experiments were performed with 1% DMSO instead of the compound solution. After being incubated at 37° C. for 18 h, OD600 value of cells was measured on a microplate reader and the percentage of bacterial cell inhibition with respect to controls was calculated. The MIC value was defined as the lowest compound concentration at which the growth of bacteria was inhibited by ≥90%. Three independent assays were performed for each compound.

E. coli strain ATCC25922 = assay: as above; type: cell-based; settings: Escherichia coli, ATCC25922; E. coli ATCC 25922; growth inhibited by ≥90%, 18 h; read-out: MIC^c: Minimum inhibitory concentration against E. coli
Source text: as §1, §2

[2] = system: S. aureus ATCC BAA-1717 (methicillin resistant); assay: MIC against clinically isolated strain 2; type: cell-based; settings: Staphylococcus aureus, ATCCBAA1717
Description: as §2
Results: Three compounds, namely 14av_amine16, 14dv_amine16 and 14dv_amine06, were selected to be tested against nine in-house clinically isolated bacterial strains including S. aureus ATCC29247, which is an ampicillin resistant strain, S. aureus ATCC BAA-41, ATCC BAA-1717, ATCC BAA-1720, ATCC 43300 which are methicillin resistant strains and four USA300 strains, (#417, #757, #1799 and #2690), which are the predominant strain type of community-associated MRSA strains in the United States.

`CCC(CC)c1cc(CCN2CCCN(Cc3ccc(C(F)(F)F)cc3)CC2)nc(-c2ccncc2)n1` [Compound 14av_amine16, 1-(2-(6-(pentan-3-yl)-2-(pyridin-4-yl)pyrimidin-4-yl)ethyl)-4-(4-(trifluoromethyl)benzyl)-1,4-diazepane] was tested, and the “inhibition of FtsZ polymerization” value (S. aureus FtsZ) was “Complete inhibition”, the “MIC^c/MIC^b: Selectivity index” value ([1]; E. coli ATCC 25922 MIC over S. aureus 29213 MIC) was greater than 15 and the MIC ([1]; ATCC29213, S. aureus 29213, growth inhibited by ≥90%, 18 h, read-out: MIC^b: Minimum inhibitory concentration against S. aureus) was 8 µM (≈ 4.09 µg/mL). The MIC ([1]; S. aureus ATCC29213, read-out: MIC against S. aureus) was 5 to 8 µM (≈ 2.56 to 4.09 µg/mL), the MIC (E. coli strain ATCC25922) was greater than 125 µM and the MIC [2] was 8 µM (≈ 4.09 µg/mL).
